Tests used:
Assay in all cases: relative viability (nuclei count vs DMSO), 5 days (fraction); higher = more cells survive
[1] = compound: COc1cc2nccc(Oc3ccc(NC(=O)C4(C(=O)Nc5ccc(F)cc5)CC4)cc3)c2cc1OC [Cabozantinib] + COc1cc2c(Oc3ccc(NC(=O)C4(C(=O)Nc5ccc(F)cc5)CC4)cc3F)ccnc2cc1OCCCN1CCOCC1 [Foretinib] (partner 0.25 µM)
How it was run: (§1)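 A single step with final 0.05% Triton X-100, 1% formaldehyde and 1 ug/ml Hoechst fixed the cells and stained nuclei 5 days after treatment. Lung cancer cell lines in 1536-well plates had been treated by pin tool the day after seeding with one drug alone or a fixed anchor-drug dose plus five library-drug doses (not always all listed) in √10 steps, and nuclei were counted on 4× images. Relative viability is the ratio of nuclei in treated wells to nuclei in vehicle wells, taken as the median of duplicate plates.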

[2] = compound: COc1cc2nccc(Oc3ccc(NC(=O)C4(C(=O)Nc5ccc(F)cc5)CC4)cc3)c2cc1OC [Cabozantinib] + Nc1nc2[nH]cc(CCc3ccc(C(=O)N[C@@H](CCC(=O)O)C(=O)O)cc3)c2c(=O)[nH]1 [Pemetrexed] (partner 0.2 µM)
How it was run: as §1

[3] = compound: O[C@@H](COc1cccc2ncccc12)CN1CCN([C@@H]2c3ccccc3[C@@H]3[C@H](c4ccccc42)C3(F)F)CC1 [Zosuquidar] + Cc1nc(Nc2ncc(C(=O)Nc3c(C)cccc3Cl)s2)cc(N2CCN(CCO)CC2)n1 [Dasatinib] (partner 0.075 µM)
How it was run: as §1

[4] = compound: O[C@@H](COc1cccc2ncccc12)CN1CCN([C@@H]2c3ccccc3[C@@H]3[C@H](c4ccccc42)C3(F)F)CC1 [Zosuquidar] + Nc1nc2[nH]cc(CCc3ccc(C(=O)N[C@@H](CCC(=O)O)C(=O)O)cc3)c2c(=O)[nH]1 [Pemetrexed] (partner 0.2 µM)
How it was run: as §1

| Cell Line | relative viability ([1]; first compound 0.02 µM) | relative viability ([1]; first compound 0.06325 µM) | relative viability ([1]; first compound 0.2 µM) | relative viability ([1]; first compound 0.6325 µM) | relative viability ([1]; first compound 2 µM) | relative viability ([2]; first compound 0.02 µM) | relative viability ([2]; first compound 0.06325 µM) | relative viability ([2]; first compound 0.2 µM) | relative viability ([2]; first compound 0.6325 µM) | relative viability ([2]; first compound 2 µM) | relative viability ([3]; first compound 0.01 µM) | relative viability ([3]; first compound 0.03162 µM) | relative viability ([3]; first compound 0.1 µM) | relative viability ([3]; first compound 0.3162 µM) | relative viability ([3]; first compound 1 µM) | relative viability ([4]; first compound 0.01 µM) | relative viability ([4]; first compound 0.03162 µM) | relative viability ([4]; first compound 0.1 µM) | relative viability ([4]; first compound 0.3162 µM) | relative viability ([4]; first compound 1 µM) |
| --- | --- | --- | --- | --- | --- | --- | --- | --- | --- | --- | --- | --- | --- | --- | --- | --- | --- | --- | --- | --- |
| HCC-366 | 0.941 | 0.948 | 0.95 | 0.905 | 0.888 | 0.189 | 0.214 | 0.173 | 0.156 | 0.15 | 0.608 | 0.468 | 0.496 | 0.767 | 0.704 | 0.177 | 0.155 | 0.147 | 0.145 | 0.184 |
| HCC-827 | 1.05 | 1.05 | – | 1.1 | 0.988 | 0.266 | 0.251 | – | 0.214 | 0.274 | 0.293 | 0.348 | 0.237 | 0.272 | 0.351 | 0.237 | 0.272 | 0.255 | 0.263 | 0.279 |
| HOP-62 | 1.17 | 1.19 | 1.06 | 1 | 1.24 | 0.271 | 0.364 | 0.34 | 0.336 | 0.3 | 0.702 | 0.528 | 0.594 | 0.679 | 0.633 | 0.256 | 0.38 | 0.341 | 0.308 | 0.295 |
| IA-LM | 1.15 | 1.15 | 1.22 | 1.23 | 1.24 | – | – | – | – | – | – | – | – | – | – | – | – | – | – | – |
| LC-2-ad | – | 1.03 | 0.889 | 1.02 | 0.89 | 0.279 | 0.285 | 0.271 | 0.278 | 0.253 | 0.509 | 0.74 | 0.531 | 0.589 | 0.613 | 0.255 | 0.276 | 0.296 | 0.31 | 0.282 |
| LCLC-97TM1 | 0.938 | 1.1 | 0.993 | 1.04 | 0.879 | 0.155 | 0.179 | 0.181 | 0.17 | 0.17 | 0.776 | 0.756 | 0.73 | 0.761 | 0.898 | 0.192 | 0.191 | – | 0.158 | 0.183 |
| LCLC-103H | 0.909 | 0.695 | 0.778 | 0.745 | 0.756 | 0.45 | 0.451 | 0.459 | 0.527 | 0.465 | 0.429 | 0.447 | 0.399 | 0.488 | 0.537 | 0.495 | 0.489 | 0.453 | 0.46 | 0.46 |
| LK-2 | – | 1.27 | – | 1.52 | 0.863 | – | 0.427 | 0.236 | 0.266 | 0.296 | 0.31 | 0.41 | 0.291 | 0.297 | 0.314 | 0.281 | 0.306 | 0.205 | 0.26 | 0.271 |
| LOU-NH91 | 0.89 | 0.997 | – | 0.966 | 0.992 | 0.424 | 0.366 | 0.487 | 0.371 | 0.413 | 0.515 | 0.377 | – | 0.601 | 0.552 | 0.409 | 0.411 | 0.448 | 0.423 | 0.396 |
| LU99A | 0.805 | 0.922 | 0.906 | 0.784 | 0.838 | 0.18 | 0.199 | 0.216 | 0.173 | 0.229 | 0.458 | 0.577 | 0.505 | 0.552 | 0.569 | 0.168 | 0.175 | 0.155 | 0.165 | 0.171 |
| LXF-289 | 0.974 | 1 | 0.934 | 1.02 | 0.993 | 0.957 | 0.953 | 0.868 | 0.883 | 0.897 | 0.217 | 0.125 | 0.237 | 0.301 | 0.182 | 0.892 | 0.905 | 0.908 | 0.895 | 0.908 |
| NCI-H23 | – | 1.03 | 0.989 | 0.904 | 0.836 | – | 0.819 | 0.471 | 0.655 | 0.476 | 0.713 | 0.811 | 0.739 | 0.983 | 0.806 | 0.601 | – | 0.612 | 0.843 | 0.657 |
| NCI-H322M | 0.967 | 1.21 | 0.899 | 0.874 | 0.931 | 0.614 | 0.744 | 0.578 | 0.628 | 0.613 | 0.242 | 0.229 | 0.242 | 0.269 | 0.227 | 0.623 | 0.537 | 0.548 | 0.582 | 0.575 |
| NCI-H358 | 0.662 | 0.839 | 0.668 | 0.662 | 0.652 | 0.181 | 0.171 | 0.16 | 0.18 | 0.166 | 0.144 | 0.172 | 0.142 | 0.183 | 0.153 | 0.189 | 0.173 | 0.173 | 0.167 | 0.154 |
| NCI-H522 | – | – | – | – | – | 1.16 | 0.972 | 0.943 | 1.25 | 0.934 | 0.933 | 0.739 | 0.867 | 0.853 | 1.45 | 0.958 | 0.897 | 0.968 | 0.843 | 1.17 |
| NCI-H727 | 0.675 | 1.06 | 1.08 | 0.818 | 0.889 | – | – | – | – | – | 0.373 | 0.387 | 0.424 | 0.429 | 0.355 | – | – | – | – | – |
| NCI-H1299 | 1.12 | 1.12 | 1.16 | 1.11 | 1.13 | – | – | – | – | – | – | – | – | – | – | – | – | – | – | – |
| NCI-H1623 | 0.783 | 1.05 | 0.695 | 0.828 | 0.874 | – | – | – | – | – | 0.499 | 0.634 | 0.487 | 0.607 | 0.498 | – | – | – | – | – |
| NCI-H1648 | – | – | – | – | – | 0.73 | 0.908 | – | 0.793 | 0.82 | – | – | – | – | – | 1.57 | 0.99 | 0.568 | 0.717 | 0.627 |
| NCI-H1703 | 0.305 | 0.399 | 0.356 | 0.427 | 0.37 | – | – | – | – | – | – | – | – | – | – | – | – | – | – | – |
| NCI-H1792 | – | – | – | – | – | – | 1.27 | 0.868 | 0.986 | 0.608 | 0.819 | 0.514 | – | 0.927 | 0.757 | 0.746 | 0.705 | 0.474 | 1.04 | 0.933 |

Reference: the supplement of paper PMC10307832
